Holding throughout (assay): microbe, parasite or virus in culture
Format in all cases: cell-based, Hepatitis C virus (HCV)
Holding throughout (conditions): Replicon Assay A
In general terms: In antiviral work, replicon cells carry a viral genome segment that copies itself.

One test has as its system HCV replicon 2B. In outline: (§1)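 HCV replicon RNA levels were quantified by TaqMan RT-PCR after 3-day compound exposure (0.5% DMSO, 5% FBS). Cyclophilin RNA, co-amplified in the same reaction, served as endogenous control; Ct values were converted to RNA amounts using linear regression standard curves.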
Another test has as its system HCV replicon 1AY93H. In outline: as §1
The subject of another test is HCV replicon 1A. An outline of the steps: as §1
Setting [1] is: read-out: 2B IC50, HCV replicon 2B.
The mark [2] stands for this setting: read-out: 1A Y93H IC50, HCV replicon 1A Y93H.
[3] abbreviates: Hepatitis C virus, HCV replicon 1A.
Setting [4] is: read-out: 1A Y93H IC50, replicon 1AY93H.

SMILES strings stand for the structures. pIC50: −log10 of the molar value. Like-named read-outs stand apart in the source and are kept apart here.

As usually defined, the pIC50 is the negative decadic logarithm of the IC50, by convention in mol/L.

On to `COC(=O)N[C@H](C(=O)N1C[C@H](F)C[C@H]1c1ncc(-c2ccc3c(c2)OC(c2ccc(C)s2)n2c-3cc3cc(-c4cnc([C@@H]5C[C@H]6C[C@H]6N5C(=O)[C@@H](NC(=O)OC)C(C)C)[nH]4)ccc32)[nH]1)C(C)C` (single isomer, unassigned) [Compound 707], for which the pIC50 in the test on HCV replicon 2B (setting [1]) was 9.08; in the test with HCV replicon 1AY93H (setting [2]), 10.47; with HCV replicon 1A (HCV replicon 1A), 11.19.

Consider `COC(=O)NC(C(=O)N1CCC[C@H]1c1ncc(-c2ccc3c(c2)cc2n3C(c3cc4ccccc4s3)Oc3cc(-c4cnc([C@@H]5CCCN5C(=O)[C@@H](NC(=O)OC)C(C)C)[nH]4)cc(F)c3-2)[nH]1)C1C[C@@H](C)O[C@@H](C)C1` (single isomer, unassigned) [Compound 642], for which the pIC50 in the test with HCV replicon 2B (setting [1]) was 9.70; with HCV replicon 1AY93H (setting [2]), 10.18; in the test with HCV replicon 1A (HCV replicon 1A) it was 11.72.

In the case of `COC(=O)N[C@H](C(=O)N1C[C@H](F)C[C@H]1c1ncc(-c2ccc3c(c2)OC(c2ccc(C4CC4)s2)n2c-3cc3cc(-c4cnc([C@@H]5C[C@@H](F)CN5C(=O)[C@@H](NC(=O)OC)C5CCOCC5)[nH]4)ccc32)[nH]1)C1CCOCC1` (mixture of isomers) [Compound 734], the pIC50 was 6.94 with HCV replicon 2B (Hepatitis C virus, read-out: 2B IC50, HCV replicon 2B); 9.62 in the test with HCV replicon 1AY93H (Hepatitis C virus, read-out: 1A Y93H IC50, HCV replicon 1A Y93H); 9.38 with HCV replicon 1A (setting [3]).

On to `CCc1ccc(C2Oc3cc(-c4c[nH]c([C@@H]5CCCN5C(=O)[C@@H](NC(=O)OC)C(C)C)n4)ccc3-c3cc4c(F)c(-c5c[nH]c([C@@H]6CCCN6C(=O)C(NC(=O)OC)C6C[C@@H](C)O[C@@H](C)C6)n5)ccc4n32)s1` (single isomer, unassigned) [Compound 360], for which the pIC50 is 8.60 with HCV replicon 2B (read-out: 2B IC50, replicon 2B); 8.45 with HCV replicon 1AY93H (setting [4]); 11.60 in the test with HCV replicon 1A (Hepatitis C virus, replicon 1A).

Regarding `COC(=O)N[C@H](C(=O)N1CCC[C@H]1c1ncc(-c2ccc3c(c2)OC(c2cc4ccccc4s2)n2c-3cc3cc(-c4cnc([C@@H]5C[C@H]6C[C@H]6N5C(=O)[C@@H](NC(=O)OC)C(C)C)[nH]4)ccc32)[nH]1)C(C)C` (single isomer, unassigned) [Compound 610], the pIC50 was 9.57 with HCV replicon 2B (setting [1]), 9.34 in the test with HCV replicon 1AY93H (setting [2]) and 10.91 with HCV replicon 1A (HCV replicon 1A).

In the case of `COC(=O)N[C@H](C(=O)N1CCC[C@H]1c1ncc(-c2ccc3c(c2)OC(c2cc4ccccc4s2)n2c-3cc3cc(-c4cnc([C@@H]5C[C@@H](F)CN5C(=O)[C@@H](NC(=O)OC)C5CCOCC5)[nH]4)ccc32)[nH]1)C(C)C` (single isomer, unassigned) [Compound 626], the pIC50 in the test on HCV replicon 2B (setting [1]) is 9.75; in the test with HCV replicon 1AY93H (setting [2]), 10.89; with HCV replicon 1A (setting [3]), 11.68.

As for `COC(=O)N[C@H](C(=O)N1C2CC2C[C@H]1c1ncc(-c2cc(F)c3c(c2)OC(c2ccc(C4CC4)s2)n2c-3cc3cc(-c4cnc([C@@H]5CCCN5C(=O)[C@@H](NC(=O)OC)C5C[C@@H](C)O[C@@H](C)C5)[nH]4)ccc32)[nH]1)C(C)C` (single isomer, unassigned) [Compound 555], the pIC50 was 9.71 with HCV replicon 2B (setting [1]), 9.98 with HCV replicon 1AY93H (setting [2]) and 11.62 with HCV replicon 1A (HCV replicon 1A).

As to `CCc1ccc(C2Oc3cc(-c4cnc([C@@H]5CCCN5C(=O)C(NC(=O)OC)C5CCOC(C)(C)C5)[nH]4)cc(F)c3-c3cc4cc(-c5cnc([C@@H]6CCCN6C(=O)[C@@H](NC(=O)OC)C(C)C)[nH]5)ccc4n32)s1` (single isomer, unassigned) [Compound 164], the pIC50 with HCV replicon 2B (read-out: 2B IC50, replicon 2B) is 9.28; with HCV replicon 1AY93H (setting [4]), 9.89; in the test with HCV replicon 1A (replicon 1A), 11.82.

On to `COC(=O)NC(C(=O)N1[C@@H]2C[C@@H]2C[C@H]1c1ncc(-c2ccc3c(c2)c(F)c2n3C(c3ccc(C4CC4)s3)Oc3cc(-c4cnc([C@@H]5CCCN5C(=O)[C@@H](NC(=O)OC)C(C)C)[nH]4)cc(F)c3-2)[nH]1)C1CCOC(C)(C)C1` (single isomer, unassigned) [Compound 422], for which the negative-log IC50 (pIC50) in the test with HCV replicon 2B (setting [1]) was 9.86; in the test with HCV replicon 1AY93H (setting [2]), 9.97; in the test with HCV replicon 1A (setting [3]) it was 11.64.

The values are drawn from patent US20160257697A1, “THIOPHENE-SUBSTITUTED TETRACYCLIC COMPOUNDS AND METHODS OFUSE THEREOF FOR THE TREATMENT OF VIRAL DISEASES” (priority 2013, published 2016).
